# Tests used:
# [1] = biological target: GDP-bound NRAS wild-type protein (Homo sapiens, UniProt P01111); test: Binding to NRAS by surface plasmon resonance (SPR), Single Cycle Kinetics; conditions: KD ratio NRAS/KRAS, SPR
# [2] = biological target: GDP-bound HRAS wild-type protein (Homo sapiens, UniProt P01112); test: Binding to HRAS by surface plasmon resonance (SPR), Single Cycle Kinetics; conditions: KD ratio HRAS/KRAS, SPR
# Sequence of GDP-bound HRAS wild-type protein (P01112 whole entry): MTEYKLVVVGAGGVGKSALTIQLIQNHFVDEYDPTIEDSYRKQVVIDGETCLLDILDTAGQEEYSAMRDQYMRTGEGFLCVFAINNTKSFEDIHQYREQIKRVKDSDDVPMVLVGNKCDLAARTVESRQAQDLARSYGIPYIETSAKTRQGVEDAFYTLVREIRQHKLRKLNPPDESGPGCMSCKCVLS
# Sequence of GDP-bound NRAS wild-type protein (P01111 whole entry): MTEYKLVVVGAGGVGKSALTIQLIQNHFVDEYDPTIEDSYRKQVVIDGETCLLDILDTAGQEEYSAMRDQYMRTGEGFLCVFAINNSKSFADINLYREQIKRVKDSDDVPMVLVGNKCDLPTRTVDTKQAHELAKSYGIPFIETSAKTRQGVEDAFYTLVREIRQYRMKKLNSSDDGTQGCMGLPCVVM
SMILES,NRAS/KRAS (ratio of KD value with respect to GDP-bound NRAS wild-type protein to KD value with respect to KRAS) [1],HRAS/KRAS (ratio of KD value with respect to GDP-bound HRAS wild-type protein to KD value with respect to KRAS) [2]
CC[C@H](C)[C@@H]1NC(=O)[C@H](CC(C)C)N(CC)C(=O)C[C@@H](C(=O)N2CCOCC2)N(C)C(=O)[C@H](C2CCCC2)N(C)C(=O)C2(CCCC2)NC(=O)[C@@H]2CCCN2C(=O)[C@H](CCc2cc(F)c(C(F)(F)F)c(F)c2)NC(=O)CN(C)C(=O)[C@H](Cc2ccc(C(F)(F)F)cc2)N2CCCC[C@@H](C2=O)N(C)C(=O)CN(C)C1=O [PP0588],B (a compound having 3 or more and less than 10 is denoted as B),B (a compound having 3 or more and less than 10 is denoted as B)
CC[C@H](C)[C@@H]1NC(=O)[C@H](CC(C)C)N(C)C(=O)C[C@@H](C(=O)N2CCOCC2)N(C)C(=O)[C@H](C2CCCC2)N(C)C(=O)C2(CCCC2)NC(=O)[C@H](C)N(CC)C(=O)[C@H](CCc2cc(F)c(C(F)(F)F)c(F)c2)NC(=O)CN(C)C(=O)[C@H](Cc2ccc(C(F)(F)F)cc2)N2CCCC[C@@H](C2=O)N(C)C(=O)CN(C)C1=O [PP0589],B (a compound having 3 or more and less than 10 is denoted as B),B (a compound having 3 or more and less than 10 is denoted as B)
CC[C@H](C)[C@@H]1NC(=O)[C@H](CC(C)C)NC(=O)C[C@@H](C(=O)N2CCOCC2)N(C)C(=O)[C@H](C2CCCC2)N(C)C(=O)C2(CCCC2)NC(=O)[C@@H]2CCCN2C(=O)[C@H](CCc2cc(F)c(C(F)(F)F)c(F)c2)NC(=O)CN(C)C(=O)[C@H](Cc2ccc(C(F)(F)F)cc2)N2CCCC[C@@H](C2=O)N(C)C(=O)CN(C)C1=O [PP0590],C (A compound having a KD ratio of 0.1 or more and less than 3 is denoted as C),B (a compound having 3 or more and less than 10 is denoted as B)
CC[C@H](C)[C@@H]1NC(=O)[C@@H](CC(C)C)N(C)C(=O)C[C@@H](C(=O)N2CCOCC2)N(C)C(=O)[C@H](C2CCCC2)N(C)C(=O)C2(CCCC2)NC(=O)[C@@H]2CCCN2C(=O)[C@H](CCc2cc(F)c(C(F)(F)F)c(F)c2)NC(=O)CN(C)C(=O)[C@H](Cc2ccc(C(F)(F)F)cc2)N2CCCC[C@@H](C2=O)N(C)C(=O)CN(C)C1=O [PP0591],B (a compound having 3 or more and less than 10 is denoted as B),B (a compound having 3 or more and less than 10 is denoted as B)
CC[C@H](C)[C@@H]1NC(=O)[C@H](CC(F)(F)F)N(C)C(=O)C[C@@H](C(=O)N2CCOCC2)N(C)C(=O)[C@H](C2CCCC2)N(C)C(=O)C2(CCCC2)NC(=O)[C@@H]2CCCN2C(=O)[C@H](CCc2cc(F)c(C(F)(F)F)c(F)c2)NC(=O)CN(C)C(=O)[C@H](Cc2ccc(C(F)(F)F)cc2)N2CCCC[C@@H](C2=O)N(C)C(=O)CN(C)C1=O [PP0594],C (A compound having a KD ratio of 0.1 or more and less than 3 is denoted as C),B (a compound having 3 or more and less than 10 is denoted as B)
CC[C@H](C)[C@@H]1NC(=O)[C@@H]2CCCCCN2C(=O)C[C@@H](C(=O)N2CCOCC2)N(C)C(=O)[C@H](C2CCCC2)N(C)C(=O)C2(CCCC2)NC(=O)[C@@H]2CCCN2C(=O)[C@H](CCc2cc(F)c(C(F)(F)F)c(F)c2)NC(=O)CN(C)C(=O)[C@H](Cc2ccc(C(F)(F)F)cc2)N2CCCC[C@@H](C2=O)N(C)C(=O)CN(C)C1=O [PP0595],C (A compound having a KD ratio of 0.1 or more and less than 3 is denoted as C),B (a compound having 3 or more and less than 10 is denoted as B)
CC(C)C[C@H]1C(=O)N[C@@H](C2CCC2)C(=O)N(C)CC(=O)N(C)[C@H]2CCCCN(C2=O)[C@@H](Cc2ccc(C(F)(F)F)cc2)C(=O)N(C)CC(=O)N[C@@H](CCc2cc(F)c(C(F)(F)F)c(F)c2)C(=O)N2CCC[C@H]2C(=O)NC2(CCCC2)C(=O)N(C)[C@@H](C2CCCC2)C(=O)N(C)[C@H](C(=O)N2CCOCC2)CC(=O)N1C [PP0596],B (a compound having 3 or more and less than 10 is denoted as B),B (a compound having 3 or more and less than 10 is denoted as B)
CCC(CC)[C@@H]1NC(=O)[C@H](CC(C)C)N(C)C(=O)C[C@@H](C(=O)N2CCOCC2)N(C)C(=O)[C@H](C2CCCC2)N(C)C(=O)C2(CCCC2)NC(=O)[C@@H]2CCCN2C(=O)[C@H](CCc2cc(F)c(C(F)(F)F)c(F)c2)NC(=O)CN(C)C(=O)[C@H](Cc2ccc(C(F)(F)F)cc2)N2CCCC[C@@H](C2=O)N(C)C(=O)CN(C)C1=O [PP0597],B (a compound having 3 or more and less than 10 is denoted as B),B (a compound having 3 or more and less than 10 is denoted as B)
CC[C@H](C)[C@@H]1NC(=O)[C@H](CC(C)C)N(C)C(=O)C[C@@H](C(=O)N2CCOCC2)N(C)C(=O)[C@H](C2CCCC2)N(C)C(=O)C2(CCCC2)NC(=O)[C@@H]2CCCN2C(=O)[C@H](CCc2ccc(C(F)(F)F)c(Cl)c2)NC(=O)CN(C)C(=O)[C@H](Cc2ccc(F)cc2)N2C/C=C\CC[C@@H](C2=O)N(C)C(=O)CN(C)C1=O [PP0607],C (A compound having a KD ratio of 0.1 or more and less than 3 is denoted as C),B (a compound having 3 or more and less than 10 is denoted as B)
CC[C@H](C)[C@@H]1NC(=O)[C@H](CC(C)C)N(C)C(=O)C[C@@H](C(=O)N2CCOCC2)N(C)C(=O)[C@H](C2CCCC2)N(C)C(=O)C2(CCCC2)NC(=O)[C@@H]2CCCN2C(=O)[C@H](CCc2ccc(C(F)(F)F)c(Cl)c2)NC(=O)CN(C)C(=O)[C@H](Cc2ccc(Cl)cc2)N2C/C=C\CC[C@@H](C2=O)N(C)C(=O)CN(C)C1=O [PP0608],C (A compound having a KD ratio of 0.1 or more and less than 3 is denoted as C),B (a compound having 3 or more and less than 10 is denoted as B)
CC[C@H](C)[C@@H]1NC(=O)[C@H](CC(C)C)N(C)C(=O)C[C@@H](C(=O)N2CCOCC2)N(C)C(=O)[C@H](C2CCCC2)N(C)C(=O)C2(CCCC2)NC(=O)[C@@H]2CCCN2C(=O)[C@H](CCc2ccc(C(F)(F)F)c(Cl)c2)NC(=O)CN(C)C(=O)[C@H](Cc2ccc(OC)cc2)N2C/C=C\CC[C@@H](C2=O)N(C)C(=O)CN(C)C1=O [PP0609],B (a compound having 3 or more and less than 10 is denoted as B),B (a compound having 3 or more and less than 10 is denoted as B)
CC[C@H](C)[C@@H]1NC(=O)[C@H](CC(C)C)N(C)C(=O)C[C@@H](C(=O)N2CCOCC2)N(C)C(=O)[C@H](C2CCCC2)N(C)C(=O)C2(CCCC2)NC(=O)[C@@H]2CCCN2C(=O)[C@H](CCc2ccc(C(F)(F)F)c(Cl)c2)NC(=O)CN(C)C(=O)[C@H](Cc2ccc(OC(F)(F)F)cc2)N2C/C=C\CC[C@@H](C2=O)N(C)C(=O)CN(C)C1=O [PP0610],B (a compound having 3 or more and less than 10 is denoted as B),B (a compound having 3 or more and less than 10 is denoted as B)
CC[C@H](C)[C@@H]1NC(=O)[C@H](CC(C)C)N(C)C(=O)C[C@@H](C(=O)N2CCOCC2)N(C)C(=O)[C@H](C2CCCC2)N(C)C(=O)C2(CCCC2)NC(=O)[C@@H]2CCCN2C(=O)[C@H](CCc2ccc(C(F)(F)F)c(Cl)c2)NC(=O)CN(C)C(=O)[C@H](Cc2ccccc2)N2CCCCC[C@@H](C2=O)N(C)C(=O)CN(C)C1=O [PP0611],B (a compound having 3 or more and less than 10 is denoted as B),B (a compound having 3 or more and less than 10 is denoted as B)
CC[C@H](C)[C@@H]1NC(=O)[C@H](CC(C)C)N(C)C(=O)C[C@@H](C(=O)N2CCOCC2)N(C)C(=O)[C@H](C2CCCC2)N(C)C(=O)C2(CCCC2)NC(=O)[C@@H]2CCCN2C(=O)[C@H](CCc2ccc(C(F)(F)F)c(Cl)c2)NC(=O)CN(C)C(=O)[C@H](Cc2ccc(F)cc2)N2CCCCC[C@@H](C2=O)N(C)C(=O)CN(C)C1=O [PP0612],B (a compound having 3 or more and less than 10 is denoted as B),B (a compound having 3 or more and less than 10 is denoted as B)
CC[C@H](C)[C@@H]1NC(=O)[C@H](CC(C)C)N(C)C(=O)C[C@@H](C(=O)N2CCOCC2)N(C)C(=O)[C@H](C2CCCC2)N(C)C(=O)C2(CCCC2)NC(=O)[C@@H]2CCCN2C(=O)[C@H](CCc2ccc(C(F)(F)F)c(Cl)c2)NC(=O)CN(C)C(=O)[C@H](Cc2ccc(Cl)cc2)N2CCCCC[C@@H](C2=O)N(C)C(=O)CN(C)C1=O [PP0613],B (a compound having 3 or more and less than 10 is denoted as B),B (a compound having 3 or more and less than 10 is denoted as B)
